Measured values published in patent US20240360146A1, “BRUTON'S TYROSINE KINASE AND MUTANT DEGRADER, COMPOSITION AND APPLICATION THEREOF” (HANGZHOU HEALZEN THERAPEUTICS CO., LTD., priority 2021, published 2024).

Target: T1, BTK (Homo sapiens, UniProt Q06187)
T1 construct: endogenous in cells; host or cells: Mino cells
Assay: BTK degradation activity test in Mino cells
Type: cell-based
Details: 16 h incubation, Western blot or Elisa
Method in brief: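 DC50 derived by curve fitting of BTK degradation rates versus untreated control across compound concentrations. Mino cells were exposed for 16 h; BTK levels in lysates, normalised via BCA protein, measured by Western blot or ELISA.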

T1 sequence (Q06187 whole entry): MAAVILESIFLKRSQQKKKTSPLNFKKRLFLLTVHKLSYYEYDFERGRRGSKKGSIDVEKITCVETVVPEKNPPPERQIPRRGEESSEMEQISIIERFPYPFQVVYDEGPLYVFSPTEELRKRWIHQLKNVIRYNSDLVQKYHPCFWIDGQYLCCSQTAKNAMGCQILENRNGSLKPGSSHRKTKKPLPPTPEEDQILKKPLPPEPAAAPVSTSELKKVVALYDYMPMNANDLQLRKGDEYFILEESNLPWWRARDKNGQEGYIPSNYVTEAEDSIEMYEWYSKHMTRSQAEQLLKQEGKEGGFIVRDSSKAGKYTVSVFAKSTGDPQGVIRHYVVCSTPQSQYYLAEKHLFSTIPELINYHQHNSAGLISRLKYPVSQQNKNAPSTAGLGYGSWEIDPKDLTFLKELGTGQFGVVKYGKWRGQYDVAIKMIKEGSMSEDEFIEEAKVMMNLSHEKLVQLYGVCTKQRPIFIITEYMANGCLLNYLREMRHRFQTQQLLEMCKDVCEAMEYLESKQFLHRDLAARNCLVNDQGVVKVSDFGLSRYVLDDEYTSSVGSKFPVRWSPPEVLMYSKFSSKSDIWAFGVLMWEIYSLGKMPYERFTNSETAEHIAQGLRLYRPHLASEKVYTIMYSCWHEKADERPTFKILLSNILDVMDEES

Compound	DC50 [nM]
CCN1CCN(C2CCCN(c3nnc(C(N)=O)c(Nc4ccc(C5CCN(CC6CCN(c7ccc8c(c7)C(=O)N(C7CCC(=O)NC7=O)C8=O)CC6)CC5)cc4)n3)C2)C1=O (stereo not shown) [Compound 054, 5-((4-(1-((1-(2-(2,6-dioxopiperidin-3-yl)-1,3-dioxoisooctyl-5-yl)piperidin-4-yl)methyl)piperidin-4-yl)phenyl)amino)-3-(3-(3-ethyl-2-oxyimidazolin-1-yl)piperidin-1-yl)-1,2,4-triazin-6-carboxamide]	< 1
CC(C)N1CCN(C2CCCN(c3nnc(C(N)=O)c(Nc4ccc(C5CCN(CC6CCN(c7ccc8c(c7)C(=O)N(C7CCC(=O)NC7=O)C8=O)CC6)CC5)cc4)n3)C2)C1=O (stereo not shown) [Compound 055, 5-((4-(1-((1-(2-(2,6-dioxopiperidin-3-yl)-1,3-dioxoisoindol-5-yl)piperidin-4-yl)methyl)piperidin-4-yl)phenyl)amino)-3-(3-(3-isopropyl-2-oxoimidazolin-1-yl)piperidin-1-yl)-1,2,4-triazin-6-carboxamide]	< 1
NC(=O)c1nnc(N2CCCC(N3CCN(C(F)(F)F)C3=O)C2)nc1Nc1ccc(C2CCN(CC3CCN(c4ccc5c(c4)C(=O)N(C4CCC(=O)NC4=O)C5=O)CC3)CC2)cc1 (stereo not shown) [Compound 056, 5-((4-(1-((1-(2-(2,6-dioxopiperidin-3-yl)-1,3-dioxoisoindol-5-yl)piperidin-4-yl)methyl)piperidin-4-yl)phenyl)amino)-3-(3-(2-oxo-3-(trifluoromethyl)imidazolin-1-yl)piperidin-1-yl)-1,2,4-triazin-6-carboxamide]	< 1
NC(=O)c1nnc(N2CCCC(N3CCN(CC(F)(F)F)C3=O)C2)nc1Nc1ccc(C2CCN(CC3CCN(c4ccc5c(c4)C(=O)N(C4CCC(=O)NC4=O)C5=O)CC3)CC2)cc1 (stereo not shown) [Compound 057, 5-((4-(1-((1-(2-(2,6-dioxopiperidin-3-yl)-1,3-dioxoisoindol-5-yl)piperidin-4-yl)methyl)piperidin-4-yl)phenyl)amino)-3-(3-(2-oxo-3-(2,2,2-trifluoroethyl)imidazolin-1-yl)piperidin-1-yl)-1,2,4-triazin-6-carboxamide]	< 1
NC(=O)c1nnc(N2CCCC(N3CCN(C4CC4)C3=O)C2)nc1Nc1ccc(C2CCN(CC3CCN(c4ccc5c(c4)C(=O)N(C4CCC(=O)NC4=O)C5=O)CC3)CC2)cc1 (stereo not shown) [Compound 058, 3-(3-(3-cyclopropyl-2-oxoimidazolin-1-yl)piperidin-1-yl)-5-((4-(1-((1-(2-(2,6-dioxopiperidin-3-yl)-1,3-dioxoisoindol-5-yl)piperidin-4-yl)methyl)piperidin-4-yl)phenyl)amino)-1,2,4-triazin-6-carboxamide]	< 1
NC(=O)c1nnc(N2CCCC(N3CCN(C4CCC4)C3=O)C2)nc1Nc1ccc(C2CCN(CC3CCN(c4ccc5c(c4)C(=O)N(C4CCC(=O)NC4=O)C5=O)CC3)CC2)cc1 (stereo not shown) [Compound 059, 3-(3-(3-cyclobutyl-2-oxoimidazolin-1-yl)piperidin-1-yl)-5-((4-(1-((1-(2-(2,6-dioxopiperidin-3-yl)-1,3-dioxoisoindol-5-yl)piperidin-4-yl)methyl)piperidin-4-yl)phenyl)amino)-1,2,4-triazin-6-carboxamide]	> 1
NC(=O)c1nnc(N2CCCC(N3CCN(C4CCCC4)C3=O)C2)nc1Nc1ccc(C2CCN(CC3CCN(c4ccc5c(c4)C(=O)N(C4CCC(=O)NC4=O)C5=O)CC3)CC2)cc1 (stereo not shown) [Compound 060, 3-(3-(3-cyclopentyl-2-oxoimidazolin-1-yl)piperidin-1-yl)-5-((4-(1-((1-(2-(2,6-dioxopiperidin-3-yl)-1,3-dioxoisoindol-5-yl)piperidin-4-yl)methyl)piperidin-4-yl)phenyl)amino)-1,2,4-triazin-6-carboxamide]	< 1
NC(=O)c1nnc(N2CCCC(N3CCN(C4CCCCC4)C3=O)C2)nc1Nc1ccc(C2CCN(CC3CCN(c4ccc5c(c4)C(=O)N(C4CCC(=O)NC4=O)C5=O)CC3)CC2)cc1 (stereo not shown) [Compound 061, 3-(3-(3-cyclohexyl-2-oxoimidazolin-1-yl)piperidin-1-yl)-5-((4-(1-((1-(2-(2,6-dioxopiperidin-3-yl)-1,3-dioxoisoindol-5-yl)piperidin-4-yl)methyl)piperidin-4-yl)phenyl)amino)-1,2,4-triazin-6-carboxamide]	< 1
NC(=O)c1nnc(N2CCCC(N3CCN(C4COC4)C3=O)C2)nc1Nc1ccc(C2CCN(CC3CCN(c4ccc5c(c4)C(=O)N(C4CCC(=O)NC4=O)C5=O)CC3)CC2)cc1 (stereo not shown) [Compound 062, 5-((4-(1-((1-(2-(2,6-dioxopiperidin-3-yl)-1,3-dioxoisoindol-5-yl)piperidin-4-yl)methyl)piperidin-4-yl)phenyl)amino)-3-(3-(3-(oxetan-3-yl)-2-oxoimidazolin-1-yl)piperidin-1-yl)-1,2,4-triazin-6-carboxamide]	< 1
NC(=O)c1nnc(N2CCCC(N3CCN(C4CCOCC4)C3=O)C2)nc1Nc1ccc(C2CCN(CC3CCN(c4ccc5c(c4)C(=O)N(C4CCC(=O)NC4=O)C5=O)CC3)CC2)cc1 (stereo not shown) [Compound 063, 5-((4-(1-((1-(2-(2,6-dioxopiperidin-3-yl)-1,3-dioxoisoindol-5-yl)piperidin-4-yl)methyl)piperidin-4-yl)phenyl)amino)-3-(3-(2-oxo-3-(tetrahydro-2H-pyran-4-yl)imidazolin-1-yl)piperidin-1-yl)-1,2,4-triazin-6-carboxamide]	> 1
NC(=O)c1nnc(N2CCCC(N3CCN(c4ccccc4)C3=O)C2)nc1Nc1ccc(C2CCN(CC3CCN(c4ccc5c(c4)C(=O)N(C4CCC(=O)NC4=O)C5=O)CC3)CC2)cc1 (stereo not shown) [Compound 064, 5-((4-(1-((1-(2-(2,6-dioxopiperidin-3-yl)-1,3-dioxoisoindol-5-yl)piperidin-4-yl)methyl)piperidin-4-yl)phenyl)amino)-3-(3-(2-oxo-3-phenylimidazolin-1-yl)piperidin-1-yl)-1,2,4-triazin-6-carboxamide]	< 1
NC(=O)c1nnc(N2CCCC(N3CCN(c4ccccc4F)C3=O)C2)nc1Nc1ccc(C2CCN(CC3CCN(c4ccc5c(c4)C(=O)N(C4CCC(=O)NC4=O)C5=O)CC3)CC2)cc1 (stereo not shown) [Compound 065, 5-((4-(1-((1-(2-(2,6-dioxopiperidin-3-yl)-1,3-dioxoisoindol-5-yl)piperidin-4-yl)methyl)piperidin-4-yl)phenyl)amino)-3-(3-(3-(2-fluorophenyl)-2-oxoimidazolin-1-yl)piperidin-1-yl)-1,2,4-triazin-6-carboxamide]	< 1
NC(=O)c1nnc(N2CCCC(N3CCN(c4cccc(F)c4)C3=O)C2)nc1Nc1ccc(C2CCN(CC3CCN(c4ccc5c(c4)C(=O)N(C4CCC(=O)NC4=O)C5=O)CC3)CC2)cc1 (stereo not shown) [Compound 066, 5-((4-(1-((1-(2-(2,6-dioxopiperidin-3-yl)-1,3-dioxoisoindol-5-yl)piperidin-4-yl)methyl)piperidin-4-yl)phenyl)amino)-3-(3-(3-(3-fluorophenyl)-2-oxoimidazolin-1-yl)piperidin-1-yl)-1,2,4-triazin-6-carboxamide]	< 1
NC(=O)c1nnc(N2CCCC(N3CCN(c4cccnc4)C3=O)C2)nc1Nc1ccc(C2CCN(CC3CCN(c4ccc5c(c4)C(=O)N(C4CCC(=O)NC4=O)C5=O)CC3)CC2)cc1 (stereo not shown) [Compound 067, 5-((4-(1-((1-(2-(2,6-dioxopiperidin-3-yl)-1,3-dioxoisoindol-5-yl)piperidin-4-yl)methyl)piperidin-4-yl)phenyl)amino)-3-(3-(2-oxo-3-(pyridin-3-yl)imidazolin-1-yl)piperidin-1-yl)-1,2,4-triazin-6-carboxamide]	< 1
CN1C(=O)N(C2CCCN(c3nnc(C(N)=O)c(Nc4ccc(C5CCN(CC6CCN(c7ccc8c(c7)C(=O)N(C7CCC(=O)NC7=O)C8=O)CC6)CC5)cc4)n3)C2)CC12CC2 (stereo not shown) [Compound 068, 5-((4-(1-((1-(2-(2,6-dioxopiperidin-3-yl)-1,3-dioxoisoindol-5-yl)piperidin-4-yl)methyl)piperidin-4-yl)phenyl)amino)-3-(3-(4-methyl-5-oxo-4,6-diazaspirocyclo[2.4]heptan-6-yl)piperidin-1-yl)-1,2,4-triazin-6-carboxamide]	< 1
CN1C(=O)N(C2CCCN(c3nnc(C(N)=O)c(Nc4ccc(C5CCN(CC6CCN(c7ccc8c(c7)C(=O)N(C7CCC(=O)NC7=O)C8=O)CC6)CC5)cc4)n3)C2)CC12CCC2 (stereo not shown) [Compound 069, 5-((4-(1-((1-(2-(2,6-dioxopiperidin-3-yl)-1,3-dioxoisoindol-5-yl)piperidin-4-yl)methyl)piperidin-4-yl)phenyl)amino)-3-(3-(5-methyl-6-oxo-5,7-diazaspirocyclo[3.4]octan-7-yl)piperidin-1-yl)-1,2,4-triazin-6-carboxamide]	< 1
NC(=O)c1nnc(N2CCCC(N3CC4CCCN4C3=O)C2)nc1Nc1ccc(C2CCN(CC3CCN(c4ccc5c(c4)C(=O)N(C4CCC(=O)NC4=O)C5=O)CC3)CC2)cc1 (stereo not shown) [Compound 070, 5-((4-(1-((1-(2-(2,6-dioxopiperidin-3-yl)-1,3-dioxoisoindol-5-yl)piperidin-4-yl)methyl)piperidin-4-yl)phenyl)amino)-3-(3-(3-oxytrihydro-1H-pyrrolo[1,2-c]imidazol-2(3H)-yl)piperidin-1-yl)-1,2,4-triazin-6-carboxamide]	< 1
CN1CCN(C2CC3CC2N(c2nnc(C(N)=O)c(Nc4ccc(C5CCN(CC6CCN(c7ccc8c(c7)C(=O)N(C7CCC(=O)NC7=O)C8=O)CC6)CC5)cc4)n2)C3)C1=O (stereo not shown) [Compound 071, 5-((4-(1-((1-(2-(2,6-dioxopiperidin-3-yl)-1,3-dioxoisoindol-5-yl)piperidin-4-yl)methyl)piperidin-4-yl)phenyl)amino)-3-(6-(3-methyl-2-oxoimidazolin-1-yl)-2-azabicyclo[2.2.1]heptan-2-yl)-1,2,4-triazin-6-carboxamide]	> 1
NC(=O)c1nnc(N2CC3CC(N4CCN(C5CCCC5)C4=O)C2C3)nc1Nc1ccc(C2CCN(CC3CCN(c4ccc5c(c4)C(=O)N(C4CCC(=O)NC4=O)C5=O)CC3)CC2)cc1 (stereo not shown) [Compound 072, 3-(6-(3-cyclopentyl-2-oxoimidazolin-1-yl)-2-azabicyclo[2.2.1]heptan-2-yl)-5-((4-(1-((1-(2-(2,6-dioxopiperidin-3-yl)-1,3-dioxoisoindol-5-yl)piperidin-4-yl)methyl)piperidin-4-yl)phenyl)amino)-1,2,4-triazin-6-carboxamide]	< 1
